Experimental data: US9040707B2, “Bicyclic thiazoles as allosteric modulators of mGluR5 receptors” (Janssen Pharmaceutica NV, priority 2009, dated 2015)

Assays:
[1] = target: T1, human mGluR5a receptor (Homo sapiens, UniProt P41594); assay: Functional Assay 3: as Functional Assay 2 but clone H12H; type: cell-based; settings: for EC50: glutamate EC20; for Emax: maximum average response at a single concentration
T1 construct: host or cells: HEK293A (monoclones H10H and H12H)
Procedure: HEK cells transfected with the human mGluR5a receptor (H10H cell line) were plated at 15.000 cells/well in clear-bottomed poly-D-lysine-coated assay plates (BD Falcon) in glutamate-glutamine-free growth medium and incubated overnight at 37° C. and 5% CO2. The following day, the growth medium was removed and the cells were washed with assay buffer containing 1× Hank's balanced salt solution (Invitrogen, Carlsbad, Calif.), 20 mM HEPES, 2.5 mM probenecid, pH 7.4 and left with 20 μL of this reagent. Following this step, the cells were loaded with calcium indicator dye, fluo-4 AM, to a final concentration of 2 μM and incubated for 40-45 min at 37° C. The dye solution was removed and replaced with assay buffer. Cell plates were held for 10-15 min at room temperature and were then loaded into the Functional Drug Screening System 6000 (FDSS 6000, Hamamatsu, Japan).
After establishment of a fluorescence baseline for about 3 seconds, the compounds of the present invention were added to the cells, and the response in cells was measured. 2.3 minutes later an EC20 concentration of the mGluR5 receptor agonist glutamate was added to the cells, and the response of the cells was measured for about 1.7 minutes. All test compounds were dissolved and diluted to a concentration of 10 mM in 100% DMSO and then serially diluted into assay buffer for a 2× stock solution in 0.6% DMSO; stock compounds were then added to the assay for a final DMSO concentration of 0.3% after the first addition to the assay well. Calcium fluorescence measures were recorded as fold over basal fluorescence; raw data was then normalized to the maximal response to glutamate. Potentiation of the agonist response of the mGluR5 receptor in the present invention was observed as an increase in response to submaximal concentrations of glutamate in the presence of compound compared to the response to glutamate in the absence of compound.
The concentration-response curves of compounds of the present invention, obtained in the presence of EC20 of mGluR5 receptor agonist glutamate to determine positive allosteric modulation, were generated using Microsoft Excel with IDBS XLfit add-ins. The raw data file containing all time points was used as the data source in the analysis template. This was saved by the FDSS as a tab-delimitted text file. Data were normalized using a static ratio function (F/F0) for each measurement of the total 350 values per well divided by each well's initial value. Data was then reduced as to peak amplitudes (Max−Initial Min) using a time range that starts approximately 1 second after the glutamate EC20 addition and continues for approximately 40 seconds. This is sufficient time to capture the peak amplitude of the cellular calcium response. Individual amplitudes were expressed as % effect by multiplying each amplitude by 100 and then dividing the product by the mean of the amplitudes derived from the glutamate ECMax-treated wells. pEC50 values for test compounds were generated by fitting the normalized values versus the log of the test compound concentration (in mol/L) using a 4 parameter logistic equation where none of the parameters were fixed. Each of the three values collected at each concentration of test compound were weighted evenly. Individual values falling outside the 95% prediction limits of the curve fit were automatically excluded from the fit. […] These two methods are in good agreement for curves with a clear plateau at the high concentration range. […] For consistency purposes across the range of potencies observed, all Emax values reported in this application are calculated using the maximum average response at a single concentration.
Functional Assay 3 was performed under the same conditions as Functional Assay 2, except that clone H12H was used instead of clone H10H.
The clones that were used in the primary functional assay gave undiscernable differences in this assay.

[2] = system: amphetamine-induced hyperlocomotion; assay: Rat hyperlocomotion assay (reversal of amphetamine-induced hyperlocomotion); type: in vivo; settings: male Sprague-Dawley rats; 3.0, 10.0, 30.0, 56.6 mg/kg p.o.; amphetamine sulphate 1.0 mg/kg s.c.; FIG. 1
Procedure: Locomotor activity was assessed as mean distance traveled (cm) in standard 16×16 photocell testing chambers measuring 43.2 cm (Length)×43.2 cm (Width)×30.5 cm (Height) (Med Associates, St. Albans, Vt.). Animals were habituated to individual activity chambers for at least 30 min prior to drug administration. Following administration of drug or vehicle, activity was recorded for a 90 minute time period. Data was expressed as the mean (±SEM) distance traveled recorded in 5 min intervals over the test period. The data was analyzed using repeated measures analysis of variance (ANOVA) followed by post-hoc testing using Dunnett's test, when appropriate. A difference was considered significant when p≦05. […]
The animals were habituated in Smart Open Field locomotor activity test chambers (Hamilton-Kinder, San Diego, Calif.) with 16×16 photobeams to automatically record locomotor activity for 30 min and then dosed with vehicle or test compound. […] At 60 min, all rats were injected subcutaneously with 1 mg/kg amphetamine or vehicle and then monitored for an additional 60 min. Animals are monitored for a total of 120 minutes. Data are expressed as changes in ambulation defined as total number of beam breaks per 5 min periods.
The data for the dose-response studies were analyzed by a between-group analysis of variance. […]

[3] = target: T1, human mGluR5a receptor; assay: Functional Assay 2: Ca2+ mobilization, HEK cells with human mGluR5a receptor (H10H cell line); type: cell-based; settings: HEK293; H10H cell line; maximum average response at a single concentration, relative to glutamate ECMax
[4] = target: T2, human mGluR5 receptor (Homo sapiens, UniProt P41594); assay: Functional Assay 1: intracellular Ca2+ mobilization, positive allosteric modulation of glutamate EC20 response; type: cell-based; settings: maximum % effect relative to glutamate ECMax
T2 construct: expressed in transfected cells; host or cells: HEK-293
T2 sequence (P41594 21-1180 isoform P41594-2 limits assumed): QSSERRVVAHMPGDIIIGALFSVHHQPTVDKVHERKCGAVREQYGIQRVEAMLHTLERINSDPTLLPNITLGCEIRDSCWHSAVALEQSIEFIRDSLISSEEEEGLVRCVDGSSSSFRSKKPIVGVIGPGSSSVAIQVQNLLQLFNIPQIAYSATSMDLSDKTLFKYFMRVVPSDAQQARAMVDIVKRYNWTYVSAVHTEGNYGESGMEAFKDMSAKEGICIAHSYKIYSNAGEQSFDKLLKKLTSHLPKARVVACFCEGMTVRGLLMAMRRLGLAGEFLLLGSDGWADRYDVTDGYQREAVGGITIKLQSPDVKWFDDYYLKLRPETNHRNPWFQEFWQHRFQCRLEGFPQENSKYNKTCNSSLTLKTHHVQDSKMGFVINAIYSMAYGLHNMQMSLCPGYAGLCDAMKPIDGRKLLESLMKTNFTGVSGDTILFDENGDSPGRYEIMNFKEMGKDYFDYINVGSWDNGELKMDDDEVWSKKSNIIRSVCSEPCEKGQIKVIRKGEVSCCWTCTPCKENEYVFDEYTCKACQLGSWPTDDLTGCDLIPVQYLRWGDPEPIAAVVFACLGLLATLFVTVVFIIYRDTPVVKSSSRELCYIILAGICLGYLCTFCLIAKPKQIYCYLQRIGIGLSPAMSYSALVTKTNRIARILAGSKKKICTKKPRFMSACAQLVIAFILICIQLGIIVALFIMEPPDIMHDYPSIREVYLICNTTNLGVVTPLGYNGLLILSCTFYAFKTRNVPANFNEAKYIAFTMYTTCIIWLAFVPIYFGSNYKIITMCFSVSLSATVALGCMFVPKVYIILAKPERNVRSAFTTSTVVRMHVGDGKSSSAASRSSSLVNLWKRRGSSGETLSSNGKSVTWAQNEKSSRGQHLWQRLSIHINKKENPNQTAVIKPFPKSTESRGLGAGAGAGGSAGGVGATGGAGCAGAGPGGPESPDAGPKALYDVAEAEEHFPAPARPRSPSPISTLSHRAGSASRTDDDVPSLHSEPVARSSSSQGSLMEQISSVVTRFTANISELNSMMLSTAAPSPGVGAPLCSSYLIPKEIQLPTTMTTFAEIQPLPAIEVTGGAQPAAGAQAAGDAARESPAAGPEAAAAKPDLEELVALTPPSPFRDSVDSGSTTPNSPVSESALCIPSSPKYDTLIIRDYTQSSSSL
Procedure: HEK-293 cells were stable transfected with human mGluR5a cDNA in expression vector pcDNA4/TO. For Assay 1, these human mGluR5 receptor over-expressing HEK-293 cells were grown at a density of 40,000 cells/well in PDL-coated 384-well plates. The following day, cells were preloaded with the calcium-sensing dye Fluo-4 AM and various concentrations of test compound were added in the absence of exogenous glutamate to test for direct agonist activity. Shortly (2.5 min) thereafter, an EC20 equivalent of glutamate (˜0.2 μM) was added. The fluorescence signal was monitored using a Hamamatsu Functional Drug Screening System (FDSS) fluorescence plate reader following the addition of compound alone (direct agonist response) and then the further addition of an EC20 of glutamate (positive allosteric modulation response). The pEC50 was defined as the negative log of the test compound concentration which produced an increase in the glutamate EC20-mediated response that was 50% of maximum. Individual amplitudes were expressed as % effect by multiplying each amplitude by 100 and then dividing the product by the mean of the amplitudes derived from the glutamate ECMax-treated wells. Emax values reported in this application are defined as the maximum % effect obtained in a concentration-response curve.

T1 sequence (P41594 21-1180 isoform P41594-2 limits assumed): as above

melting point	EC50 [1]	Emax [1]	Emax [3]	Emax [4]	Structure (SMILES)	reversal of amphetamine-induced hyperlocomotion [2]
87.2 to 87.8 °C	1410 nM	57%			C[C@@H](N1CCc2nc(COc3cccc(F)c3)sc2C1=O)C(C)(C)C [Compound 7, 2-[(3-fluorophenoxy)methyl]-6,7-dihydro-5-[(1R)-1,2,2-trimethylpropyl]-thiazolo[5,4-c]pyridin-4(5H)-one]	
			77%	88%	CN1CCc2nc(COc3ccccc3)sc2C1=O [Compound 8, 6,7-dihydro-5-methyl-2-(phenoxymethyl)-thiazolo[5,4-c]pyridin-4(5H)-one]	dose-dependent reversal effects
108.2 to 108.9 °C	933 nM	58%			O=C1c2sc(OCc3cccc(F)c3)nc2CCN1c1cccc(C(F)(F)F)c1 [Compound 30, 2-[(3-fluorophenyl)methoxy]-6,7-dihydro-5-[3-(trifluoromethyl)phenyl]-thiazolo[5,4-c]pyridin-4(5H)-one]	
	> 30200 nM	21%			C[C@@H](N1CCc2nc(OCc3cccc(F)c3)sc2C1=O)C(C)(C)C [Compound 77, 2-[(3-fluorophenyl)methoxy]-6,7-dihydro-5-[(1R)-1,2,2-trimethylpropyl]-thiazolo[5,4-c]pyridin-4(5H)-one]	
